One may read the kinact as the maximal first-order rate at which the target is inactivated. For orientation: microsomal CLint means a measure of how fast metabolising enzymes remove a compound, apart from limits set by blood flow. Low readings indicate greater metabolic stability, high ones faster metabolism. For orientation: fraction unbound means free concentration divided by total concentration. A higher fraction unbound goes with weak binding. What is called Log P is the decadic logarithm of the partition coefficient of the neutral form, usually between octanol and water. What is called Ki is a dissociation constant, usually derived from enzyme kinetics or from competition with a known ligand.

Data set [1] is described as follows: Blood to plasma ratio (B:P). The note with it: PBPK input; unpublished (in-house) data.
For data set [2] the following is noted: measured (0.4 mg/mL protein where stated); ref Charman et al., 2020 1; cited from earlier work.
The target of data set [3] is T1, CYP3A4 (Homo sapiens, UniProt P08684). The experiment in a line: in vitro.
The conditions of data set [4]: piperaquine 960 mg SD + clarithromycin 500 mg SD; ref Eurartesim - EMA Website, 12; cited from earlier work.
Data set [5] in a line: PBPK absorption inputs (fa, ka, tlag, Qgut, Fg). Set-up: species or system human. The note with it: for fa: Relative fa (in vivo fasted AUC / fed AUC; Reuter et al., 2015 for DHA, Crevoisier et al., 1997 for mefloquine). From the text:
Initial models were built based on available physicochemical and in vitro data to give a ‘bottom-up’ prediction. Areas of uncertainty were highlighted, and the potential impact of uncertainty associated with such parameters was investigated using sensitivity analysis. Available clinical PK data were then used to evaluate and, if required, refine the initial ‘bottom-up’ model. Care was taken to split data into training and test sets wherever possible. The model verification strategy differed across compounds based on availability of different types of clinical data. […] Clinical studies used for drug model development and verification are reported in Table S2 (PK) and Table S3 (DDIs).

Data set [6] in a line: Hepatic / HLM intrinsic clearance, enzyme not defined. The note with it: human, liver microsomes. (In general: Microsomes from liver hold many membrane-bound enzymes, among them those of drug oxidation.)
A short description of another data set: in vitro. The note with it: human, plasma.
The target in data set [7] is T1, CYP3A4. From the text: (§1) In nearly all cases the fraction of systemic elimination metabolised by a given enzyme (fm) determined in vitro was unavailable in the literature.
For data set [8], the target named is T1, CYP3A4. The experiment in a line: CYP3A4 inhibition (direct and time-dependent). The note with it: Derived from IC50 shift data (single time point), unpublished data.
Another data set deals with Caco-2 cells. The note with it: calibrated against propranolol; plasma as medium for atovaquone and piperaquine; ref Charman et al., 2020 1; cited from earlier work.
The conditions of data set [9]: cited from earlier work.
Data set [10] is described as follows: In vitro flags for victim and perpetrator properties conferring DDI liability. The data set is classed as in vitro ADME, human. The note with it: in vitro flag, mainly based on in vitro determinations.
A further data set deals with CYP2C9. The experiment in a line: Metabolism by CYP2C9 (CLint, fm). Type of data set: in vitro ADME, human.
Description: as §1

The conditions of data set [11]: PBPK input; ref Charman et al., 2020 1; cited from earlier work.
The target in data set [12] is T1, CYP3A4. Particulars: cited from earlier work.
For a further data set, the target named is CYP2C19 (Homo sapiens, UniProt P33261). Briefly: Metabolism by CYP2C19 (CLint, fm). The data set is classed as in vitro ADME.
Description: as §1

Data set [13] in a line: Fraction unbound in human liver microsomes (fumic). The note with it: extrapolated from value measured at 0.4 mg/mL to 0.1 mg/mL, method of Austin et al., 2002.
Another data set deals with CYP1A2. Particulars: read-out: CYP1A2 Ki; ref Charman et al., 2020 1; cited from earlier work.
A further data set concerns UGT1A9. Briefly: Metabolism by UGT1A9. The note with it: equal contribution assumed. Type of data set: in vitro ADME, human.
Description: as §1

For a further data set, the system named is UGT2B7. The experiment in a line: Metabolism by UGT2B7. Type of data set: in vitro ADME, human. Particulars: equal contribution assumed.
Description: as §1

The conditions of data set [14]: cited from earlier work. This is another data set of the same source.
For data set [15] the following is noted: 1987 9, proguanil Jeppesen et al., 1997 34, cited from earlier work.
For data set [16] the following is noted: ref Charman et al., 2020 1; cited from earlier work.
A further data set deals with MATEs. Set-up: method as in Miyake et al., 2021 71. The note with it: average of MATE1 and MATE2-K; ref Miyake et al., 2021 71; cited from earlier work.
The test system of the next data set is OCT1. Set-up: method as in Ito et al., 2010 68, Panfen et al., 2019 69. The note with it: average; ref Ito et al., 2010 68, Panfen et al., 2019 69; cited from earlier work.
A further data set deals with OCT2. The note with it: read-out: OCT2 Ki; ref Kusuhara et al., 2011 70; cited from earlier work.
[17] abbreviates: Relative fa (in vivo fasted AUC / high fat fed AUC), EMA Website.
Where [18] appears, read: HLM CLint 31.6 µL/min/mg with 20% split equally between CYP2C9 and CYP2C19.

Read-outs that look alike come from different tables or passages of the source. Some results are limits rather than exact numbers.

T1 sequence (P08684 whole entry): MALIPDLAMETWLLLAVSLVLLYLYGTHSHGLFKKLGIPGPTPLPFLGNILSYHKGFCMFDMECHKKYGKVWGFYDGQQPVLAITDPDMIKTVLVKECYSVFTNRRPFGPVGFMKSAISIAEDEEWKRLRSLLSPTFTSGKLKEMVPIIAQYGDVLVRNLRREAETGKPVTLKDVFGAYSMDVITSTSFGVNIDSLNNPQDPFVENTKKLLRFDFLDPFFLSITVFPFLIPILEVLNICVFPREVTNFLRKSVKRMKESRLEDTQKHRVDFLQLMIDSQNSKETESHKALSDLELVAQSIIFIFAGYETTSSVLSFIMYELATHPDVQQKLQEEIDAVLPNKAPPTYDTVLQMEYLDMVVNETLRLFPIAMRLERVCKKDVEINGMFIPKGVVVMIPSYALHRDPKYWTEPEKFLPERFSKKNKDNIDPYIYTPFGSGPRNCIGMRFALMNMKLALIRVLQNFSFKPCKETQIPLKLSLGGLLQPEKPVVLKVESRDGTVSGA
Chain of CYP2C19 (P33261 whole entry): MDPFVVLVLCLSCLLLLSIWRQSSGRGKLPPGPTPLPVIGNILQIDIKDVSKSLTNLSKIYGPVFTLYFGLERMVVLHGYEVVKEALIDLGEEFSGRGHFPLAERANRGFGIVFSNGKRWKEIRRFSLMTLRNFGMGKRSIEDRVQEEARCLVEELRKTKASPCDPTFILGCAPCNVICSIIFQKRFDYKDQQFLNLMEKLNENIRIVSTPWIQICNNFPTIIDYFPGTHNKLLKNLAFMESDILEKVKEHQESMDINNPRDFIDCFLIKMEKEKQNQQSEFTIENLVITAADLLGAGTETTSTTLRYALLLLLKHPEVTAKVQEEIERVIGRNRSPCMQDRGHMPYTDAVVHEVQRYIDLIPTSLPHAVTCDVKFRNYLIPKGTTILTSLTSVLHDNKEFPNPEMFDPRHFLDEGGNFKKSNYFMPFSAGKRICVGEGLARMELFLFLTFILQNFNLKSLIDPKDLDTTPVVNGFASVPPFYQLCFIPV

For the molecule `Clc1ccc2c(N3CCN(CCCN4CCN(c5ccnc6cc(Cl)ccc56)CC4)CC3)ccnc2c1` [Piperaquine, piperaquine], the “B:P” value in data set [1] turned out to be 0.9. Besides, the fumic in data set [2] is listed as 0.013. Further, the kinact on CYP3A4 [3] is 0.000347 s⁻¹. In addition, in [4], the “AUC ratio Obs” value is at most 2 fold. Also, the “Cmax ratio Obs” value in data set [4] is recorded as at most 2 fold. Further, the “fa - 960 mg fasted” value in [5] (setting [17]) came out at 0.4. The “fa - 1280 mg fasted” value in data set [5] (setting [17]) is listed as 0.33. Also, in data set [5] (Relative fa, EMA Website), the “fa - 960 mg fed” value came out at 1. Further, the “fa - 1280 mg fed” value in data set [5] (Relative fa, EMA Website) is given as 1. For the same molecule, the microsomal CLint in data set [6] came out at 31.6 µL/min/mg. In the data set “in vitro”, this molecule came in with a fraction unbound of 0.006. In addition, the fmCYP3A4 at CYP3A4 [7] is reported as 80%. Moreover, the “CLint CYP3A4” value on CYP3A4 [7] (microsomes) stood at 25.3 µL/min/pmol. For the same molecule, at CYP3A4 [8], the “CYP3A4 KI” value came out at 0.12 µM. Moreover, the “Caco-2 (Papp A-B)” value in the data set on Caco-2 cells is on record as 233 10-6 cm/s. For the same molecule, the “AUC Obs” value was 5380 ng·h/mL in data set [9] (960 mg QD (fasted, Day 3), 0-72 h, ref Eurartesim S06, Females <75 kg); 3930 ng·h/mL in data set [9] (960 mg QD (fasted, Day 3), 0-72 h, ref Eurartesim S06, Males <75 kg); 12500 ng·h/mL in data set [9] (960 mg QD (fed, Day 3), 0-72 h, ref Eurartesim S06, Females <75 kg); 10700 ng·h/mL in [9] (960 mg QD (fed, Day 3), 0-72 h, ref Eurartesim S06, Males <75 kg); 3930 ng·h/mL in [9] (1280 mg QD (fasted), 0-72 h, ref Eurartesim S06, Males ≥75 kg); 10700 ng·h/mL in data set [9] (1280 mg QD (fed), 0-72 h, ref Eurartesim S06, Males ≥75 kg EMA Website, 33). In addition, the “AUC Obs” value in [9] (1280 mg SD tetraphosphate salt, 0-72 h, ref EMA Website, 33) was 3010 ng·h/mL. Also, the “Cmax Obs” value was 505 ng/mL in data set [9] (960 mg QD (fasted, Day 3), ref Eurartesim S06, Females <75 kg); 280 ng/mL in data set [9] (960 mg QD (fasted, Day 3), ref Eurartesim S06, Males <75 kg); 1270 ng/mL in data set [9] (960 mg QD (fed, Day 3), ref Eurartesim S06, Females <75 kg); 1120 ng/mL in [9] (960 mg QD (fed, Day 3), ref Eurartesim S06, Males <75 kg); 280 ng/mL in data set [9] (1280 mg QD (fasted), ref Eurartesim S06, Males ≥75 kg); 1120 ng/mL in [9] (1280 mg QD (fed), ref Eurartesim S06, Males ≥75 kg EMA Website, 33). Moreover, in [9] (1280 mg SD tetraphosphate salt, ref EMA Website, 33), the “Cmax Obs” value is 190 ng/mL. The “Risk as a perpetrator” value in [10] was “CYP3A4 time‐dependent inhibitor”. In addition, in [10], the “Risk as a victim” value is “Substrate of CYP3A4, CYP2C9 and CYP2C19”. Moreover, the “CLint CYP2C9” value in the data set with CYP2C9 (setting [18]) is 3.16 µL/min/pmol. In addition, the fmCYP2C9 in the data set on CYP2C9 (fraction metabolised used in the PBPK model) is 10%. Moreover, the “Log P” value in [11] is reported as 5.27. For the same molecule, the Ki on CYP3A4 [12] was 3 µM. Besides, the “CLint CYP2C19” value at CYP2C19 (setting [18]) is on record as 3.16 µL/min/pmol. In addition, on CYP2C19 (fraction metabolised used in the PBPK model (proguanil: total, all routes)), the fmCYP2C19 amounted to 10%.
In the case of `C[C@H]1[C@@H](O)O[C@@H]2O[C@@]3(C)CC[C@H]4[C@H](C)CC[C@@H]1[C@@]24OO3` [DHA, dihydroartemisinin], the fumic in data set [13] is given as 0.964. Besides, the Ki with CYP1A2 is 4.38 µM. The molecule also showed a fmUGT1A9 in the data set with UGT1A9 of 50%. For the same molecule, the fa in data set [5] (listed as DHA (administered as DHA)) worked out at 0.71; in [5] (listed as DHA (administered as artesunate)), 1. Moreover, the “Caco-2 (Papp A-B)” value in the data set on Caco-2 cells was 49 10-6 cm/s. Further, the “AUC Obs” value in data set [9] (4 mg/kg SD, 0-inf, ref Na-Bangchang et al., 2004 20) was 907 ng·h/mL; in [9] (120 mg SD, 0-inf, ref Chinh et al., 2009 23), 370 ng·h/mL; in [9] (180 mg SD (artesunate), 0-inf, ref Jittamala et al., 2015 15), 1400 ng·h/mL; in data set [9] (240 mg SD, 0-inf, ref Le et al., 1999 22), 1980 ng·h/mL; in [9] (300 mg SD, 0-inf, ref Na-Bangchang et al., 1997 21), 2018 ng·h/mL. Further, in data set [10], the “Risk as a perpetrator” value is “CYP1A2 inhibitor”. Also, the “Risk as a victim” value in data set [10] is “Substrate of UGT1A9 and UGT2B7”. This molecule registered a fmUGT2B7 with UGT2B7 of 50%. Besides, the Main binding protein entry in data set [14] (ref amodiaquine, DEAQ Hietala, 2009 2, atovaquone Nixon et al., 2013 13, DHA Batty et al., 2004 41, mefloquine, tafenoquine (also AGP) Zsila et al., 2008 54) is listed as “AGP”. Further, the “Log P” value in data set [11] is 2.3. Also, the “CL PO” value in [15] (clinically observed oral (in vivo) clearance, pyronaridine: blood, ref amodiaquine Winstanley et al., DEAQ Akande et al., 2015 8, Scarsi et al., 2014 35, Tarning et al., 2012 36, Orrell et al., 2008 37, DHA Na-Bangchang et al., 2004 42, lumefantrine Lefevre et al., 2002 52, Hoglund et al., 2015 53, mefloquine Charles et al., 2007 56, pyronaridine Jittama) was 273.2 L/h.
Take `CCc1nc(N)nc(N)c1-c1ccc(Cl)cc1` [Pyrimethamine, pyrimethamine]: in data set [16], the “pKa(s)” value is reported as 6.86. Further, the Ki at MATEs is 0.124 µM; with OCT1, 2.3 µM; in the data set with OCT2, 10 µM. The microsomal CLint in data set [6] worked out at 1.8 µL/min/mg. Further, the “Caco-2 (Papp A-B)” value in the data set with Caco-2 cells is listed as 59.8 10-6 cm/s. Further, the “Cmax Obs” value in [9] (in vivo, 100 mg) was 771 ng/mL. For the same molecule, the “Risk as a perpetrator” value in [10] was “OCT2 and MATE inhibitor”. Also, the fu in data set [14] (PBPK input, ref Charman et al., 2020 1) is given as 0.095. The CL renal in [15] (PBPK input, ref amodiaquine, DEAQ Winstanley et al., atovaquone Rolan et al., 1997 14, azithromycin Lalak et al., 1993 23, carboxyprimaquine Mihaly et al., 1985 26, chloroquine Walker et al., 1987 29, DHA EMA Website, 44, doxycycline Raghuram et al., 1982 48, Nguyen et al., 1989 49, mefloquine Schwartz et al., 1982 57, primaquine White, 1985 62, pyrimeth) was 0.0989 L/h.
